Converted amounts (≈) assume the structure as drawn. “And” between values parts separate entries of the source, which are not always exact repeats. Equal entries are not always repeated. Where two headings read alike, the source gives them in different places.
Experiments:
[1] = test system: S. aureus MW2-WT; experiment: microbe, parasite or virus in culture; type: cell-based, Staphylococcus aureus; details: Staphylococcus aureus, MW2WT
[2] = test system: S. aureus MW2ΔSTK1 mutant; experiment: E-test antibiotic susceptibility (MIC), Muller-Hinton agar; type: cell-based; details: Staphylococcus aureus
[3] = test system: S. aureus MW2ΔSTP1 mutant; experiment: as above; type: cell-based; details: Staphylococcus aureus
[4] = test system: S. aureus MW2 wild-type; experiment: Checkerboard titration end-point bactericidal assay (MBC), Muller-Hinton agar; type: cell-based, Staphylococcus aureus; details: for MBC: Staphylococcus aureus, MW2WILDTYPE
Method: FIGS. 15A-15B show checkerboard assays for determining bactericidal assay. Serial two-fold dilutions of 2 mM of Inh2-B1 (MW=411.58 g/mol) and (A) 3 mM ceftriaxone (MW=669.7 g/mol) were made in two separate 96-well plates in vertical (B1-B12 to H1-H2 wells) and horizontal (A2-H2 to A12-H12 wells) directions respectively. Serially diluted Inh2-B1 (100 μL) in the individual well was then mixed with the 100 μL serially diluted ceftriaxone present in the corresponding wells. The resulting various combinations of Inh2-B1 (starting from 1 mM) and ceftriaxone (starting from 1.5 mM) or cefotaxime (2.1 mM) as well as serially diluted one Inh2-B1 (B1 to H1) and ceftriaxone (A2-A12) or cefotaxime (A2-A12) were then incorporated in Muller-Hinton mini agar plates (2 mL). The agar plates were then seeded and diluted S. aureus MW2-wild-type culture equivalent to approximately 23±3 CFU. This checkerboard assay was used to determine the ideal combination of lowest concentration of Inh2-B1 and ceftriaxone that kills 99.9% of the wild-type MW2.
(§1) Since the STK1 is not essential for bacterial survival and its absence results in retardation of growth, an end-point bactericidal assay was done, employing the Checkerboard titration method followed by a time-to-kill assay using the broth dilution method. The 96-well plate-based checkerboard titration assays were performed using the fixed number of CFUs of MW2 strain, and the survival of the bacteria was measured on solid agar plates as an end-point result. […] The cut-off value to designate clinical isolates of S. aureus for antibiotics, including Ceftriaxone (TX) and Cefotaxime (CT) as susceptible, is less than 4 μg/ml (i.e., <4.8 μM of TX, and <7 μM of CT). […] CFU counts of MW2-WT grown in the presence of various concentrations of Inh2-B1 were examined over a period of 16 h. […] Similarly, it was also determined CFU counts of MW2-WT and MW2ΔSTK1 strains each grown in the absence or the presence of 50 μM of Inh2-B1 and 1.5 μM Ceftriaxone (1 μg/ml) or […] Cefotaxime (1 μg/ml) for 16 h employing the broth dilution method. […] Further, to address whether MW2 or STK1 could become refractory to a potential combined therapy, the S. aureus MW2 wild-type strain was grown in the presence of suboptimal dose of Inh2-B1 alone and combination with Ceftriaxone and Cefotaxime (25 μM Inh2-B1 and 3 μM of Ceftriaxone or 3 μM Cefotaxime) for consecutive 10 generations.
(§2) Subsequently, the susceptibility of S. aureus MW2 strain to Ceftriaxone, Cefotaxime, Inh2, and Inh2-B1 was confirmed by the CLSI recommended serial dilution method using Muller Hinton broth. Minimum bactericidal activity (MBC) was measured using Muller-Hinton agar. Changes in the MBC of Ceftriaxone/Cefotaxime in the presence of serially diluted Inh2-B1 was determined in two steps. Initial screening was carried out using the Checkerboard method using Muller-Hinton agar (FIG. 15). […] Subsequent time to kill assays were carried out using 50 μM Inh2-B1 and Ceftriaxone. Cefotaxime (1 μg/ml) in a final volume of 250 μl using a sterile 96-well (U-bottom) microtiter plate over a period of 16 h at 37° C. under constant rotation (120 rpm). Optical density and corresponding CFU counts were measured at every two-hour interval up to 8 hours with a final overnight reading at the end of incubation period. CFU counts were measured using appropriate dilution of 10 μl of properly mixed samples at each time interval.

[5] = test system: S. aureus MW2-WT; experiment: Time-to-kill assay (OD and CFU counts over 16 h), broth dilution; type: cell-based, Staphylococcus aureus; details: only 50 μM Inh2-B1, only 1.5 μM Ceftriaxone (1 μg/ml) or only 3 μM Cefotaxime (1 μg/ml), 16 h
Method: (§3) FIGS. 4A-F show. […] Optical Density and corresponding Colony forming units of (C and D) MW2-WT and (E and F) MW2ΔSTK1 cultures in the presence or absence 50 μM Inh2-B1, 1.51 μM (1 μg/ml) Ceftriaxone, 2.125 μM (1 μg/ml) Cefotaxime, and combination of Inh2-B1 plus Ceftriaxone, and Inh2-B1 plus Cefotaxime. The experiments were carried out as described in the Materials and Method section using Muller-Hinton broth and seeded with 4×10^6 CFUs of S. aureus MW2-Wild type or MW2ΔSTK1 strains per well. Each data points represent Mean±S.D. P values of significance (**=<0.01, ***=<0.001) were determined using the t-test with Welch's corrections. NS—Not significant.
as §2, with “interval. All experiments were performed in three biological replicates and the statistical analysis of the results obtained at each time point was carried out by the non-parametric t-test with Welch's correction using GraphPad Prism 6 software.” for “interval.”

[6] = test system: S. aureus MW2ΔSTK1; experiment: as above; type: cell-based, Staphylococcus aureus; details: in the presence of Ceftriaxone (1 μg/ml)
Method: as §3
as §2, with “interval. All experiments were performed in three biological replicates and the statistical analysis of the results obtained at each time point was carried out by the non-parametric t-test with Welch's correction using GraphPad Prism 6 software.” for “interval.”

[7] = test system: S. aureus MW2 wild-type; experiment: Serial passage at suboptimal dose (10 generations), stk1 PCR and DNA sequencing; type: cell-based, Staphylococcus aureus; details: in the presence of 50 μM Inh2-B1
Method: as §1

[8] = target: S. aureus STKK1 (the soluble kinase domain of STK1, 280 aa) (Staphylococcus aureus, UniProt A0ABF7PGK0); experiment: In vitro kinase assay: inhibition of autophosphorylation of recombinant STKK1 (γ32P-ATP); type: biochemical; details: after 5 min pre-incubation
Method: For the present study, recombinant His-tag-STKK1 was created along with part of the adjacent juxta-membrane domain (1-280 aa) using the pET14b vector system and specific primers (Table-1 and Table-2) as described previously. The recombinant proteins were expressed in BL21 DE3 (pLysS) and purified using Ni^+2-NTA-affinity chromatography, dialyzed against 10 mM Tris/HCl, pH 7.5, and stored as 10% glycerol stock (500 μg/ml) at −20° C. as described previously. In vitro kinase assays were performed using 2 μg STKK1 in the presence of 1 μCi γ^32P-ATP (specific activity 3000 Ci/mMol, PerkinElmer) at 30° C. for 45 min in a final volume of 30 μl phosphorylation buffer (50 mM Tris/HCl, pH7.5, 1 mM dithiothreitol, 5 mM MgCl2, and/or 5 mM MnCl2). The inhibition of autophosphorylation of STKK1 was carried out using this assay in the presence and absence of (50 μM) individual members of the 32 prescreened small molecule compound library. Phosphorylated proteins were separated by SDS-PAGE and subsequently identified by using Coomassie stain and autoradiography. The individual phosphorylated protein bands were then excised and subjected to radioactive counting using beta-scintillation counter for quantitative analysis. Experiments were repeated at least three times for statistical analysis.

[9] = test system: S. pyogenes SP-STK; experiment: In vitro autophosphorylation / kinase activity of SP-STK; type: biochemical; details: at 116 μM
[10] = test system: S. aureus MW2; experiment: Broth dilution susceptibility / growth inhibition assay, Muller Hinton broth; type: cell-based, Staphylococcus aureus; details: Staphylococcus aureus
Method: as §2, with “interval. All experiments were performed in three biological replicates and the statistical analysis of the results obtained at each time point was carried out by the non-parametric t-test with Welch's correction using GraphPad Prism 6 software.” for “interval.”

[11] = test system: S. aureus STK1 / STKK1; experiment: Solid-phase ATP affinity chromatography, elution of bound kinase by inhibitor, Western blot; type: binding; details: eluted with 50 μM inhibitor, anti-STK1 immunoblot
Method: (§4) An overnight culture of S. aureus MW2 strain was centrifuged, and the resulting bacterial pellet was resuspended in lysostaphin digestion buffer (50 mM Tris/HCl buffer, pH 7.5, containing 5 μg/ml DNAse/RNAse and protease inhibitor cocktail) in 1/10 the volume of the original culture volume. The latter was then subjected to lysostaphin treatment (15 U/ml). The lysostaphin digest was sonicated (5 sec pulse at every 10 sec for 10 min at 50% of 130 W, […]), and the debris free whole cell lysate was obtained after centrifugation (10.000×g, 10 min, 4° C.). […] The column was then washed with ten column volumes of binding buffer. Subsequently, the bound proteins were eluted with the 10-column volume of buffer containing 50 μM Inh-2 and Inh2-B1. S. aureus crude lysate, the last fraction of the column washing step, and eluted fractions were resolved by SDS-PAGE and electroblotted onto a PVDF membrane. […] A similar experiment was performed using S. pyogenes whole cell lysates obtained from phage lysin-digested S. pyogenes M1T1 strain using the anti-SP-STK antibody as described previously using to determine the specificity of the inhibitor for S. aureus STK1.

[12] = test system: S. pyogenes SP-STK / SP-STKK; experiment: as above; type: binding; details: 50 μM inhibitor
Method: as §4

[13] = test system: cell wall hydrolase genes in S. aureus MW2-WT; experiment: qRT-PCR mRNA expression of cell wall hydrolase genes; type: cell-based, Staphylococcus aureus; details: treated MW2-WT vs untreated
Method: The late log phase-grown S. aureus strains MW2 wild-type, and isogenic ΔSTK1 and ΔSTP1 mutant strains, as well as S. aureus MW2 strain treated with 25 μM Inh2-B1 for 4 h, were subjected to lysostaphin treatment to obtain whole cell lysate. Total RNA from the resulting lysate was first extracted by TRIZOL™ (Invitrogen/Thermo) and treated with RNase-free DNaseI. High-quality total RNA (RIN>7.0, and 260/280 and 260/230 ratios >1.8) was then extracted by using RNA purification kit (Norgen, Canada) per manufacturer's instructions and confirmed by an Agilent 2100 Bioanalyzer (Agilent Technologies, Palo Alto, Calif.). The first-strand cDNA from the total RNA was generated, and relative mRNA concentration was quantitated using SYBR Green qRT-PCR master mix and specific primers, using a Light Cycler® 480 real-time PCR machine (Table 2). The results obtained for all samples (three biological replicates each in triplicates) were normalized to corresponding values of 16S rRNA. All results including relative fold-changes in the mRNA expression (mutant vs. wild-type or treated vs. nontreated) for individual genes were analyzed using Exor4 software (Roche Applied Science). Changes in expression ratios by more than 2-fold (up- or down-regulation) were considered as significant.

Sequence of S. aureus STKK1 (the soluble kinase domain of STK1, 280 aa) (A0ABF7PGK0 entry or part of it): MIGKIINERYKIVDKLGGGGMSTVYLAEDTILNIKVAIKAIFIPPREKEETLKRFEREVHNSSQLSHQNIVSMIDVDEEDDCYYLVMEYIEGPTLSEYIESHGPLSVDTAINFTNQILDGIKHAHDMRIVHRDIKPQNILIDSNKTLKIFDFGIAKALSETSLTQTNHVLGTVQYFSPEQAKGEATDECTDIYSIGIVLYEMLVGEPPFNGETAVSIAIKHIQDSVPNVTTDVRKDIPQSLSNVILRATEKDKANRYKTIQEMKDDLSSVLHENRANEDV

Row | Structure (SMILES) | MIC [1] | MIC [2] | MIC [3] | MBC ([4]; agent alone, MW2, read-out: Minimum bactericidal concentration (MBC)) | MBC ([4]; in the presence of 50 μM of Inh2-B1, read-out: MBC for MW2 in the presence of Inh2-B1) | concentration up to which growth of MW2 was seen ([4]; agent alone, further analysis) | concentration of wells with ≥1 CFU of wild-type MW2 ([4]; checkerboard, agent alone) | fold reduction of MBC ([4]; in the presence of 50 μM of Inh2-B1 vs antibiotic alone) | growth pattern of the wild-type, single agent [5] | growth of MW2ΔSTK1 [6] | bactericidal activity against the passaged strain [7] | IC50 [8] | inhibition of autophosphorylation of S. pyogenes SP-STK [9] | IC50 ([10]; MW2, read-out: IC50 concentration for MW2) | MIC ([10]; MW2, read-out: minimum inhibitory concentration) | elution of STK1 bound to ATP-column, whole cell lysate of S. aureus MW2 [11] | elution of SP-STK bound to ATP-column, S. pyogenes whole cell lysate [12] | expression of cell wall hydrolase-encoding genes [13]
1 | CO/N=C(\C(=O)N[C@@H]1C(=O)N2C(C(=O)O)=C(CSc3nc(=O)c(=O)[nH]n3C)CS[C@H]12)c1csc(N)n1 [Ceftriaxone] | > 100 µg/mL | 4 µg/mL (≈ 7.21 µM) | > 100 µg/mL | 151 µM and 100 µg/mL | 0.59 µM and 0.39 µg/mL | 125 µM | ≤ 75.00 µM | 256 fold | remained unaltered | reduced significantly | remained intact | – | – | – | – | – | – | –
2 | Cc1ccc(NC(=O)c2sc(=S)n3c2[nH]c(=O)c2ccccc23)c(C)c1 [Inh2, N-(2,4-Dimethylphenyl)-5-oxo-1-thioxo-4,5-dihydro[1,3]thiazolo[3,4-a]quinazoline-3-carboxamide] | – | – | – | – | – | – | – | – | – | – | – | 24.5 µM | did not inhibit autophosphorylation | 12 µM | 48 µM | presence of STK1 | did not elute | down-regulation of cell wall hydrolase-encoding genes

Source: patent US11318141B2, “Methods and compositions related to STK1-targeted small molecules as antibiotic resistance breakers” (Ohio State Innovation Foundation, priority 2017, dated 2022)
